How the values were obtained:
[1] = system: annular sections of the basilar artery of dogs; test: In vitro vasoconstrictive activity in the basilar artery of dogs; settings: dog basilar artery, endothelium removed
Experimental: Experiments are carried out on annular sections of the basilar artery of dogs from which the endothelium has been removed and which are placed in an organ chamber enabling the measurement of isometric contractions in the presence or absence of ketanserin.

[2] = system: annular sections of the coronary artery; test: Effect on annular sections of the coronary artery; design: species or system dogs; settings: same doses as in the basilar artery test
[3] = system: sections of the saphenous vein; test: Effect on sections of the saphenous vein; design: species or system dogs; settings: same doses as in the basilar artery test

| Structure (SMILES) | EC50 ([1]; isometric contractions, read-out: EC50, contraction of basilar artery sections) [nM] | effect on annular sections of the coronary artery [2] | effect on sections of the saphenous vein [3] | induction of contractions in arterial sections [1] |
| --- | --- | --- | --- | --- |
| CNS(=O)(=O)Cc1ccc2cccc(CCN(C)C)c2c1 [Example 1, 2-{1-[2-(Dimethylamino)ethyl]naphth-7-yl}-N-methyl-methanesulphonamide] | ~1000 | does not show any significant effect | does not show any significant effect |  |
| NCCc1c[nH]c2ccc(O)cc12 [serotonin, reference compound] |  |  |  | capable of inducing contractions |

— US5332759A, “Naphthalene amides and sulphonamides, processes for their preparation and pharmaceutical compositions containing them” (Adir et Compagnie, priority 1992, dated 1994)
